In patent publication US20240018121A1, “NOVEL HETEROAROMATIC COMPOUNDS EXHIBITING ANTIFUNGAL ACTIVITY AND THEIR METHOD OF USE” (FOX CHASE CHEMCIAL DIVERSITY CENTER, INC., priority 2020, published 2024):
Values after ≈ are worked out from the molar mass of the structure shown. Counter-ions that a name gives are not always drawn. Like-named read-outs stand apart in the source and are kept apart here.

How the values were obtained:
Format in all cases: cell-based
[1] = test system: Aspergillus fumigatus T33439 (ATCC MYA-3626); assay: Fungal MIC Protocol, Aspergillus fumigatus; conditions: for MIC: Aspergillus fumigatus, read-out: MIC Aspergillus fumigatus 3626
Method: (§1) Fungal MIC Protocol: RPMI/MOPS media (Roswell Park Memorial Institute/3-morpholinopropane-1-sulfonic acid media) is prepared by dissolving 8.4 grams RPMI […] (Sigma cat #R1383), 34.52 grams MOPS buffer (Sigma cat #M3.183) and 2 […] glucose in 900 mL deionized water. The pH is adjusted to 7.0 with NaOH and filter sterilized. 0.1 mL, of a stock spore suspension (or loop from frozen stock) is inoculated to a 75 mL tissue culture flask (Falcon cat #353136) containing 50 mL of Potato Dextrose Agar (PDA, 24 grams PD broth (Fisher cat #DF 0549179), 20 grams agar (Fisher cat #BP 1423500) per liter water). Aspergillus and Fusarium strains are grown at 35° C. and Mucor strains are grown at room temperature for 3-5 days. Spores are harvested by flooding the flask with 5 mL phosphate buffered saline (PBS) pH 7.4+0.1% Tween-20 and several glass beads (Fisher cat #S800243) are added to aid in agitation. The supernatant is removed and the OD530 of a 1:100 dilution is measured. Spores are diluted in RPMI/MOPS to a final OD530 of 0.002 for Aspergillus and an OD530 of 0.005 for Fusarium and Mucor. The final concentration of spores is approximately 2×10^4 cfu/mL. Test compound(s) are diluted to 200 ug/mL in RPMI/MOPS ([…]). Ten (10) serial dilutions are prepared with RPMI/MOPS in a 96-well round bottom plate (Fisher cat #353136). For Mucor strains a sterile flat-bottom 96-well plate is used. 50 μl of compound dilutions in duplicate are added to a sterile 96-well round bottom plate. 50 ul of diluted spores are added to the compound-containing plates. Control wells include 1) compound but no cells and 2) spores but no compound. Mix the plates gently by hand, place in ziplock bags and
(§2) incubate at 35° C. for 48 hours. […]

[2] = test system: Aspergillus flavus AFL1 (ATCC MYA-3631); assay: Fungal MIC Protocol, Aspergillus flavus; conditions: for MIC: Aspergillus flavus, read-out: MIC Aspergillus flavus 3631
Method: as §1, §2

Candida albicans GDH2346 = assay: Candida Minimal Inhibitory Concentration (MIC); conditions: 50% growth inhibition at 48 hours; for MIC50: Candida albicans, GDH2346, read-out: MIC-50 Candida albicans GDH2346
Method: Candida Minimal Inhibitory Concentration (MIC): RPMI/MOPS media is prepared by dissolving 8.4 g RPMI 1640, 34.52 g MOPS buffer and 2 g glucose in 900 mL water. The pH is adjusted to 7.0 with NaOH. The total volume is brought to 1 L and the resulting solution is filter sterilized. The Candida stock is streaked on a Yeast extract Peptone Dextrose (YPD) agar plate and grown at 35° C. for isolation of single colonies. Compounds of the disclosure are diluted to 200 μg/mL in RPMI/MOPS (4.8 ul of 10 mg/mL DMSO stock in 240 ul media). Ten (10) 1:2 serial dilutions are prepared in RPMI/MOPS in a 96-well round bottom plate. Fifty (50) μl of compound dilutions are transferred in duplicate to a sterile tissue culture-treated 96-well flat-bottom, black-sided polypropylene plate. A single colony of Candida from the YPD plate is re-suspended in 5 mL phosphate buffered saline (BS) and optical density (OD) at 600 nm is measured. The suspension is adjusted to OD=1.0 and a 1:1000 dilution is prepared in RPMI/MOPS. Fifty (50) ul aliquots of the diluted yeast are added to the plates containing 50 μL of compound to all wells except 12E-H. Control wells include: 12 A-D cells, no compound and 12 E-H no cells, no compound. The plates are mixed gently by hand and placed in Ziplok bags in a 35° C. incubator. The OD600 is measured at 24 and 48 hours.

[3] = test system: Mucor circinelloides 1463(62) (ATCC 26759); assay: Fungal MIC Protocol, Mucor circinelloides (MIC-50); conditions: Mucor circinelloides, read-out: MIC-50 Mucorales circinelloides 26579
Method: as §1
(§3) incubate at 35° C. for 48 hours. Score the MIC visually (lowest concentration of compound showing >50% growth inhibition) using an inverted mirror.

[4] = test system: Mucor ramosissimus 057718 (ATCC 90286); assay: Fungal MIC Protocol, Mucor ramosissimus (MIC-50); conditions: Mucor ramosissimus, read-out: MIC-50 Mucorales ramosissimus 90286
Method: as §1, §3

[5] = test system: Fusarium solani (ATCC 58877); assay: Fungal MIC Protocol, Fusarium solani; conditions: Fusarium solani, read-out: MIC Fusarium solani 58877
Method: as §1, §2

[6] = test system: Fusarium falciforme FS1 (ATCC MYA-3636); assay: Fungal MIC Protocol, Fusarium falciforme; conditions: Fusarium falciforme, read-out: MIC Fusarium falciforme 3636
Method: as §1, §2

[7] = 100% growth inhibition at 48 hours
[8] = ATCC26759, 50% growth inhibition at 48 hours
[9] = ATCC90286, 50% growth inhibition at 48 hours
[10] = ATCC58877, 100% growth inhibition at 48 hours

| SMILES | MIC [1, 7] | MIC [2, 7] | MIC50 (Candida albicans GDH2346) | also measured |
| --- | --- | --- | --- | --- |
| N=C(N)N1CC=C(c2ccc(-c3nnc(-c4ccc(C5=CCN(C(=N)N)CC5)cc4C(F)(F)F)o3)cc2)CC1 [Example 46, 4-(4-(5-(4-(1-Carbamimidoyl-1,2,3,6-tetrahydropyridin-4-yl)-2-(trifluoromethyl)phenyl)-1,3,4-oxadiazol-2-yl)phenyl)-5,6-dihydropyridine-1(2H)-carboximidamide] | 1.56 µg/mL (≈ 2.91 µM) | 1.56 µg/mL (≈ 2.91 µM) | 0.2 µg/mL (≈ 0.373 µM) | – |
| Cc1cc(-c2nnc(-c3ccc(N4CCN(C(=N)N)CC4)cc3)o2)ccc1N1CCN(C(=N)N)CC1 [Example 60, 4-(4-{5-[4-(4-Carbamimidoylpiperazin-1-yl)-3-methylphenyl]-1,3,4-oxadiazol-2-yl}phenyl)piperazine-1-carboximidamide] | 25 µg/mL (≈ 51.2 µM) | 25 µg/mL (≈ 51.2 µM) | 1.56 µg/mL (≈ 3.19 µM) | – |
| N=C(N)N1CC=C(c2ccc(-c3nnc(-c4ccc(C5=CCN(C(=N)N)CC5)cc4F)n3C3CC3)c(F)c2)CC1 [Example 17, 4,4′-(4,4′-(4-Cyclopropyl-4H-1,2,4-triazole-3,5-diyl)bis(3-fluoro-4,1-phenylene))bis(5,6-dihydropyridine-1(2H)-carboximidamide)] | < 0.1 µg/mL | 0.39 µg/mL (≈ 0.717 µM) | 3.13 µg/mL (≈ 5.76 µM) | MIC50 [3, 8]: 0.39 µg/mL (≈ 0.717 µM); MIC50 [4, 9]: 0.78 µg/mL (≈ 1.43 µM); MIC [5, 10]: 0.39 µg/mL (≈ 0.717 µM); MIC [6, 7]: < 0.1 µg/mL |
| N=C(N)N1CC=C(c2ccc(-c3nnc(-c4ccc(C5=CCN(C(=N)N)CC5)cc4)n3C3CCC3)cc2)CC1 [Example 6, 4,4′-(4,4′-(4-Cyclobutyl-4H-1,2,4-triazole-3,5-diyl)bis(4,1-phenylene))bis(5,6-dihydropyridine-1(2H)-carboximidamide)] | 0.2 µg/mL (≈ 0.383 µM) | 0.39 µg/mL (≈ 0.748 µM) | 3.13 µg/mL (≈ 6 µM) | MIC50 [3, 8]: 0.78 µg/mL (≈ 1.5 µM); MIC50 [4, 9]: 1.56 µg/mL (≈ 2.99 µM); MIC [5, 10]: 0.39 µg/mL (≈ 0.748 µM); MIC [6, 7]: < 0.1 µg/mL |
| Cn1nc(-c2ccc(N3CCN(C(=N)N)CC3)cc2)cc1-c1ccc(N2CCN(C(=N)N)CC2)cc1 [Example 55, 4,4′-(4,4′-(1-Methyl-1H-pyrazole-3,5-diyl)bis(4,1-phenylene)) dipiperazine-1-carboximidamide] | 0.78 µg/mL (≈ 1.6 µM) | 3.13 µg/mL (≈ 6.43 µM) | 1.56 µg/mL (≈ 3.21 µM) | – |
| Cc1cc(N2CCN(C(=N)N)CC2)ccc1-c1nnc(-c2ccc(N3CCN(C(=N)N)CC3)cc2)o1 [Example 61, 4-(4-{5-[4-(4-Carbamimidoylpiperazin-1-yl)-2-methylphenyl]-1,3,4-oxadiazol-2-yl}phenyl)piperazine-1-carboximidamide] | 0.78 µg/mL (≈ 1.6 µM) | 3.13 µg/mL (≈ 6.41 µM) | 1.56 µg/mL (≈ 3.19 µM) | – |
| CNc1cc(C2=CCN(C(=N)N)CC2)ccc1-c1nnc(-c2ccc(C3=CCN(C(=N)N)CC3)cc2NC)o1 [Example 47b, 4,4′-(4,4′-(1,3,4-Oxadiazole-2,5-diyl)bis(3-(methylamino)-4,1-phenylene))bis(5,6-dihydropyridine-1(2H)-carboximidamide)] | – | – | – | MIC Aspergillus fumigatus 3626 [1, 7]: 0.78 µg·mL; MIC Aspergillus flavus 3631 [2, 7]: 0.78 µg·mL; MIC-50 Candida albicans GDH2346 (Candida albicans GDH2346): 1.56 µg/mL (≈ 2.96 µM) |
| N=C(N)N1CCN(c2ccc(-c3nnc(-c4ccc(N5CCN(C(=N)N)CC5)cc4)o3)cc2)CC1 [Example 51, 4,4′-(4,4′-(1,3,4-Oxadiazole-2,5-diyl)bis(4,1-phenylene)) dipiperazine-1-carboximidamide] | 0.78 µg/mL (≈ 1.64 µM) | 6.25 µg/mL (≈ 13.2 µM) | 3.13 µg/mL (≈ 6.6 µM) | – |
| Cc1cc(C2=CCN(C(=N)N)CC2)cc(C)c1-c1nnc(-c2ccc(C3=CCN(C(=N)N)CC3)cc2)o1 [Example 45, 4-(4-(5-(4-(1-Carbamimidoyl-1,2,3,6-tetrahydropyridin-4-yl)-2,6-dimethylphenyl)-1,3,4-oxadiazol-2-yl)phenyl)-5,6-dihydropyridine-1(2H)-carboximidamide] | 0.39 µg/mL (≈ 0.785 µM) | 0.39 µg/mL (≈ 0.785 µM) | 0.39 µg/mL (≈ 0.785 µM) | – |
| Cc1cc(C2CCN(C(=N)N)CC2)ccc1-c1nnc(-c2ccc(C3CCN(C(=N)N)CC3)cc2)o1 [Example 53, 4-(4-(5-(4-(1-Carbamimidoylpiperidin-4-yl)-2-methylphenyl)-1,3,4-oxadiazol-2-yl)phenyl)piperidine-1-carboximidamide] | 25 µg/mL (≈ 51.4 µM) | 6.25 µg/mL (≈ 12.8 µM) | 1.56 µg/mL (≈ 3.21 µM) | – |
| Cc1c(C2=CCN(C(=N)N)CC2)ccc(-c2nnc(-c3ccc(C4=CCN(C(=N)N)CC4)cc3)o2)c1C [Example 44, 4-(4-(5-(4-(1-Carbamimidoyl-1,2,3,6-tetrahydropyridin-4-yl)-2,3-dimethylphenyl)-1,3,4-oxadiazol-2-yl)phenyl)-5,6-dihydropyridine-1(2H)-carboximidamide] | 6.25 µg/mL (≈ 12.6 µM) | 1.56 µg/mL (≈ 3.14 µM) | 0.39 µg/mL (≈ 0.785 µM) | – |
| CNc1cc(C2=CCN(C(=N)N)CC2)ccc1-c1nnc(-c2ccc(C3=CCN(C(=N)N)CC3)cc2F)o1 [Example 47a, 4-(4-(5-(4-(1-Carbamimidoyl-1,2,3,6-tetrahydropyridin-4-yl)-2-(methylamino)phenyl)-1,3,4-oxadiazol-2-yl)-3-fluorophenyl)-5,6-dihydropyridine-1(2H)-carboximidamide] | 1.56 µg/mL (≈ 3.03 µM) | 0.39 µg/mL (≈ 0.756 µM) | 0.78 µg/mL (≈ 1.51 µM) | – |
| N=C(N)N1CC=C(c2ccc(-c3nnc(-c4ccc(C5=CCN(C(=N)N)CC5)cc4)n3C3CC3)cc2)CC1 [Example 4, 4,4′-(4,4′-(4-Cyclopropyl-4H-1,2,4-triazole-3,5-diyl)bis(4,1-phenylene)) bis(5,6-dihydropyridine-1(2H)-carboximidamide)] | < 0.1 µg/mL | 0.39 µg/mL (≈ 0.768 µM) | – | MIC50 [3, 8]: 0.39 µg/mL (≈ 0.768 µM); MIC50 [4, 9]: 1.56 µg/mL (≈ 3.07 µM); MIC [5, 10]: 0.2 µg/mL (≈ 0.394 µM); MIC [6, 7]: < 0.1 µg/mL |
| N=C(N)N1CCC(c2ccc(-c3nnc(-c4ccc(C5CCN(C(=N)N)CC5)cc4)o3)cc2)CC1 [Example 52, 4,4′-(4,4′-(1,3,4-Oxadiazole-2,5-diyl)bis(4,1-phenylene)) dipiperidine-1-carboximidamide] | 50 µg/mL (≈ 106 µM) | 6.25 µg/mL (≈ 13.2 µM) | 4.3 µg/mL (≈ 9.1 µM) | – |
| CC(CO)n1c(-c2ccc(C3=CCN(C(=N)N)CC3)cc2F)nnc1-c1ccc(C2=CCN(C(=N)N)CC2)cc1F (centres unmarked) [Example 83, 4-(4-{5-[4-(1-carbamimidoyl-1,2,3,6-tetrahydropyridin-4-yl)-2-fluorophenyl]-4-(1-hydroxypropan-2-yl)-4H-1,2,4-triazol-3-yl}-3-fluorophenyl)-1,2,3,6-tetrahydropyridine-1-carboximidamide hydrochloride] | – | – | – | MIC50 ([3]; ATCC26759, 48 h): 1.56 µg/mL; MIC ([1]; 48 h): 0.39 µg/mL; MIC50 ([4]; ATCC90286, 48 h): 12.5 µg/mL; MIC ([5]; ATCC58877, 48 h): 0.2 µg/mL; MIC ([6]; 48 h): 0.2 µg/mL; MIC ([2]; 48 h): 0.78 µg/mL |
